According to patent publication US20150302167A1, “SYSTEM AND METHOD FOR DEVELOPMENT OF THERAPEUTIC SOLUTIONS” (CELLWORKS RESEARCH INDIA PRIVATE LIMITED, priority 2012, published 2015):

B1: AMG714: RA drug with published clinical trial data, listed among various approved drugs (antibody, chains of the INN, looked up, V domains shown)
VH: EVQLVQSGAEVKKPGESLKISCKVSGYFFTTYWIGWVRQMPGKGLEYMGIIYPGDSDTRYSPSFQGQVTISADKSISTAYLQWSSLKASDTAMYYCARGGNWNCFDYWGQGTLVTVSS
VL: EIVLTQSPGTLSLSPGERATLSCRASQSVSSSYLAWYQQKPGQAPRLLIYGASRRATGIPDRFSGSGSGTDFTLTISRLEPEDFAVYYCQRYGSSHTFGQGTKLEIS

Tests used:
[1] = Published clinical trial data of RA drugs: ACR20/ACR50/ACR70 response, drug vs placebo; format: in vivo, human; details: for ACR20 Diff. / ACR50 Diff. / ACR70 Diff.: Type: Diff. (drug minus placebo), * significant difference > 15%; for Highest Significant Clinical Disease Remission Score: highest ACR level with significant difference > 15% over placebo
Excerpt: In another embodiment, American College of Rheumatoid (ACR) scoring system and DAS28 scoring system are used to determine the extent of improvement in the RA disease symptoms on treatment with a drug.
In another embodiment, the ACR scoring system involves three main scores: ACR20 score pertaining to 20% improvement in the disease, ACR50 score pertaining to 50% improvement in the disease and ACR70 score pertaining to 70% improvement in the disease. Clinically, the calculation of the ACR score is dependent on inputs from a patient Health Assessment Questionnaire (HAQ) and analysis of the percentage improvement in the RA disease phenotypes. […]

[2] = Type: Drug; published clinical trial data; cited from earlier work

| Molecule | ACR20 Diff. [1] | ACR50 Diff. [1] | ACR70 Diff. [1] | Highest Significant Clinical Disease Remission Score [1] | ACR20 [2] | ACR50 [2] | ACR70 [2] |
| --- | --- | --- | --- | --- | --- | --- | --- |
| CN(Cc1cnc2nc(N)nc(N)c2n1)c1ccc(C(=O)N[C@@H](CCC(=O)O)C(=O)O)cc1 [METHOTREXATE] | 20% | 15* % | 5% | ACR50 (ACR50 score pertaining to 50% improvement in the disease) | 46% | 23% | 9% |
| C[C@@H]1CCN(C(=O)CC#N)C[C@@H]1N(C)c1ncnc2[nH]ccc12 [TOFACITINIB] | 66.5% | 57.7% | 20* % | ACR70 (ACR70 score pertaining to 70% improvement in the disease) |  |  |  |
| ANAKINRA | 16* % | 9% | 4% | ACR20 (ACR20 score pertaining to 20% improvement in the disease) | 38% | 17% | 6% |
| DENOSUMAB | <0% | <0% | <0% | Non | 23% | 9% | 1% |
| ETANERCEPT | 15% | 29% | 28* % | ACR70 (ACR70 score pertaining to 70% improvement in the disease) | 86% | 71% | 49% |
| RITUXIMAB | 26% | 21% | 15* % | ACR70 (ACR70 score pertaining to 70% improvement in the disease) | 54% | 34% | 20% |
| SECUKINUMAB | 23* % | 12% | 0% | ACR20 (ACR20 score pertaining to 20% improvement in the disease) | 54% | 27% | 12% |
| TOCILIZUMAB | 33% | 24% | 21* % | ACR70 (ACR70 score pertaining to 70% improvement in the disease) | 74% | 53% | 37% |
| B1 | 36* % | 0% | 0% | ACR20 (ACR20 score pertaining to 20% improvement in the disease) | 62% | 0% | 0% |
